Test results: patent US7935711B2, “HIV inhibiting 2-(4-cyanophenylamino) pyrimidine oxide derivatives” (priority 2005, dated 2011)

Legend:
[1] = test system: HIV strain C, mutation L100I in HIV reverse transcriptase; test: Antiviral spectrum, cellular assay, strain C; type: cell-based; conditions: Human immunodeficiency virus 1, read-out: pEC50 C (converted)
Experimental: (§1) Because of the increasing emergence of drug resistant HIV strains, the present compounds were tested for their potency against clinically isolated HIV strains harboring several mutations. These mutations are associated with resistance to reverse transcriptase inhibitors and result in viruses that show various degrees of phenotypic cross-resistance to the currently commercially available drugs such as for instance AZT and delavirdine.
(§2) The antiviral activity of the compound of the present invention is evaluated in the presence of wild type HIV and HIV mutants bearing mutations at the reverse transcriptase gene. The activity of the compounds is evaluated using a cellular assay and the residual activity is expressed in pEC50 values. The columns IIIB and A-G in the table list the pEC50 values against various strains IIIB, A-G.
Strain C contains mutation L100I in HIV reverse transcriptase, […]

[2] = test system: wild type HIV-LAI strain (IIIB); test: Antiviral spectrum, cellular assay, strain IIIB; type: cell-based; conditions: Human immunodeficiency virus 1
Experimental: as §1, §2
Strain IIIB is wild type HIV-LAI strain;

[3] = test system: HIV strain E, mutations L100I and K103N in HIV reverse transcriptase; test: Antiviral spectrum, cellular assay, strain E; type: cell-based; conditions: Human immunodeficiency virus 1, read-out: pEC50 E (converted)
Experimental: as §1, §2
Strain E contains mutations L100I and K103N in HIV reverse transcriptase, […]

[4] = test system: HIV strain D, mutation Y188L and S162K in HIV reverse transcriptase; test: Antiviral spectrum, cellular assay, strain D; type: cell-based; conditions: Human immunodeficiency virus 1, read-out: pEC50 D (converted)
Experimental: as §1, §2
Strain D contains mutation Y188L and S162K in HIV reverse transcriptase, […]

[5] = test system: HIV strain B, mutation K103N in HIV reverse transcriptase; test: Antiviral spectrum, cellular assay, strain B; type: cell-based; conditions: Human immunodeficiency virus 1, read-out: pEC50 B (converted)
Experimental: as §1, §2
Strain B contains mutation K103N in HIV reverse transcriptase, […]

[6] = test system: HIV strain F, mutations K101E and K103N in HIV reverse transcriptase; test: Antiviral spectrum, cellular assay, strain F; type: cell-based; conditions: Human immunodeficiency virus 1, read-out: pEC50 F (converted)
Experimental: as §1, §2
Strain F contains mutations K101E and K103N in HIV reverse transcriptase.

[7] = test system: HIV strain A, mutation Y181C in HIV reverse transcriptase; test: Antiviral spectrum, cellular assay, strain A; type: cell-based; conditions: Human immunodeficiency virus 1, read-out: pEC50 A (converted)
Experimental: as §1, §2
Strain A contains mutation Y181C in HIV reverse transcriptase, […]

SMILES	EC50 [1]	EC50 [2]	EC50 [3]	melting point	EC50 [4]	EC50 [5]	EC50 [6]	EC50 [7]
Cc1cc(C#N)cc(C)c1Oc1nc(Nc2ccc(C#N)cc2)[n+]([O-])c(N)c1Br [Compound 1]	0.631 nM	0.575 nM	1.07 nM	271 °C	0.603 nM	1.41 nM	1.05 nM	0.631 nM
Cc1cc(C#N)cc(C)c1Oc1nc(Nc2ccc(C#N)cc2)nc(N)c1Br [Compound A, 4-[[6-amino-5-bromo-2-[(4-cyanophenyl)amino]-4-pyrimidinyl]oxy]-3,5-dimethylbenzonitrile, reference compound]	2.88 nM	2.82 nM	8.13 nM		2.45 nM	1.78 nM	4.57 nM	10 nM
